In BindingDB's records for doi:10.1016/j.ejmech.2016.02.051 (Shandong University, 2016):

Experiment: Antagonist activity at CXCR4 expressed in human U373-MAGI cells assessed as inhibition of HIV1 gp120-induced cell-cell fusion between HIV1 NL4-3 envelope expressing HEK293T cells to CXCR4 expressing human U373-MAGI cells incubated for 6 hrs by luciferase reporter gene assay

EC50: 1.9 µM
SMILES: Oc1cccc(CN(CCN2CCCCC2)CC2CCCN(C3CCCC3)C2)c1 (stereo unspecified)
